Measured values: PMC8765320, “Identification of a Proteasome-Targeting Arylsulfonamide with Potential for the Treatment of Chagas’ Disease” (Antimicrobial Agents and Chemotherapy, 2022)
pEC50: −log10 of the molar value.

What was measured:
[1] = system: cytosolic T. cruzi malic enzyme (cTcME; C4B63_28g106); assay: Thermal proteome profiling, cTcME; assay type: binding, Trypanosoma cruzi; conditions: for ΔTm 1 / ΔTm 2: malic enzyme C4B63_28g106
Description: Aliquots of each lysate were then incubated at designated temperatures (33 to 69°C) and then, for each temperature, insoluble (denatured) proteins were removed. The resulting soluble protein samples were reduced, alkylated, and digested with trypsin prior to derivatization with tandem mass tags. Pooled peptides were fractionated by high-pressure liquid chromatography and analyzed by LC/MS-MS prior to identification and quantitation. The melting points of identified proteins were then established using the TPP software package. Full melt curves were established for 6,771 proteins, representing 39.4% coverage of the T. cruzi proteome.
T. cruzi (X10/7 strain) mid-log-phase epimastigotes (∼1 × 10^10) were harvested by centrifugation (1,912 × g, 15 min, 4°C) and washed with ice-cold PBS (1,912 × g, 5 min, 4°C); finally, the cell pellet was resuspended in 8 ml of ice-cold lysis buffer (1 mM EDTA, 1 mM dithiothreitol [DTT], 100 μM TLCK [Nα-p-tosyl-L-lysine chloromethyl ketone], and 1× Roche EDTA-free COmplete protease inhibitor cocktail in 50 mM potassium phosphate buffer [pH 7.4]). The cell suspension was submitted to three freeze-thaw cycles in a dry ice/ethanol bath to biologically inactivate the parasites and then submitted to cell disruption (Constant Systems, UK) at 30 kpsi. The resulting lysate was centrifuged (100,000 × g, 20 min, 4°C), the supernatant was collected, and the protein concentration was determined using a Bio-Rad protein assay.
Each 2-ml aliquot (drug and vehicle treated) was divided into 10 × 100-μl aliquots in 0.5-ml thin-walled PCR tubes, followed by incubation at a designated temperature (33, 37, 41, 45, 49, 53, 57, 61, 65, or 69°C) for 3 min, followed in turn by incubation at room temperature for 3 min before each sample was placed on ice. Each aliquot was centrifuged (100,000 × g, 20 min, 4°C), the supernatants were harvested, and the protein concentration was assessed.
All aspects of sample processing, peptide and protein identification and quantitation, and target identification were carried out as previously described ([15]). However, in this instance, proteins were identified by searching the MS and MS/MS data for the peptides against T. cruzi proteome Dm28c 2018 version 50 (https://tritrypdb.org/tritrypdb).

[2] = system: ubiquitinated proteins in T. cruzi epimastigotes; assay: Accumulation of ubiquitinated proteins in treated epimastigotes (LC-MS/MS); assay type: cell-based, Trypanosoma cruzi; conditions: epimastigotes pretreated 8 h at 3× EC50 (methods: 8× EC50); one biological replicate
Description: In cells where the function of the proteasome has been compromised, there is a concomitant build-up of ubiquitinated proteins earmarked for degradation. […] Control cultures were treated for the same period of time in the presence of dimethyl sulfoxide (DMSO). Enrichment of ubiquitinated proteins was achieved by immunoprecipitation using magnetic beads conjugated to an antibody specific for the remnant of ubiquitinated lysines following digestion with trypsin and/or LysC. We used liquid chromatography-tandem mass spectrometry (LC-MS/MS) to calculate the ubiquitination ratio of each sample by dividing the reporter intensity of ubiquitinated proteins by the reporter intensity of total protein (see Table S8). As expected, the accumulation of ubiquitinylated proteins was highest in epimastigotes treated with bortezomib (2.7-fold higher than in the DMSO-treated control), which is known to inhibit all three catalytic activities of the proteasome (Fig. 3). […] Similarly, ubiquitinated proteins accumulated to levels 1.9-fold higher in compound 1-treated parasites compared to those recovered from DMSO-treated control cells.
Controls were incubated in the presence of diluent (DMSO). Cells were harvested by centrifugation (1,912 × g, 15 min, 4°C) and washed with ice-cold PBS (1,912 × g, 5 min, 4°C); finally, the cell pellets were resuspended in 1.5 ml of ice-cold lysis buffer (1 mM EDTA, 1 mM DTT, 100 μM TLCK, and 1× Roche EDTA-free cOmplete protease inhibitor cocktail in 50 mM potassium phosphate buffer [pH 7.4]). Cell suspensions were submitted to three freeze-thaw cycles in a dry ice/ethanol bath to biologically inactivate the parasites and then lysed using a OneShot cell disruptor (Constant Systems) at 30 kpsi.
Cell lysates were centrifuged (100,000 × g, 20 min, 4°C), supernatants were collected, and the protein concentrations were determined by using a standard Bio-Rad protein assay. […]

[3] = system: L. donovani intramacrophage; parameters: method as in Peña et al. (12); conditions: ref Peña et al. (12), read-out: Mean compound 1 EC50; cited from earlier work

## COc1ccc(NS(=O)(=O)c2cc(-c3cc(C)n[nH]3)ccc2C)cc1OC [Compound 1]
[1]; experiment 1, lysate, compound at 10× EC50 (20 μM)
  increase in thermal stability of cTcME (mean ΔTm): 8.8 °C
[1]; biological replicate 1
  ΔTm 1: 8.6 °C
  ΔTm 2: 9.08 °C
[1]; biological replicate 2
  ΔTm 1: 5.6 °C
  ΔTm 2: 3.73 °C
[2]
  accumulation of ubiquitinated proteins versus DMSO-treated control: 1.9 fold
[3]
  pEC50: 5.10
